Where two headings read alike, the source gives them in different places.
Assays:
[1] = target: GDP-bound KRAS protein (aa 1-169), containing both G12D and C118A amino acid substitutions (Homo sapiens (Human), UniProt P01116, C118A/G12D); assay: KRAS G12D Coupled Nucleotide Exchange Assay; type: biochemical
[2] = tested on: Phosphorylation of ERK1/2 in AsPC-1 cells; assay: Phospho-ERK1/2 MSD Assay; type: cell-based, human; conditions: Homo sapiens, ASPC1, 2 h
Experimental: AsPC-1 (ATCC® CRL-1682™) cells were cultured in RPMI 1640 Medium (ThermoFisher Scientific 11875093) containing 10% fetal bovine serum (ThermoFisher Scientific 16000044) and 1× penicillin-streptomycin-glutamine (ThermoFisher Scientific 10378016). Sixteen hours prior to compound treatment, AsPC-1 cells were seeded in 96-well cell culture plates at a density of 25,000 cells/well and incubated at 37° C., 5% CO2. A compound dose-response titration was diluted in growth media, added to appropriate wells of a cell culture plate, and then incubated at 37° C., 5% CO2 for 2 hours. Following compound treatment, cells were washed with ice-cold Dulbecco's phosphate-buffered saline, no Ca^2+ or Mg^2+ (ThermoFisher Scientific 14190144), and then lysed in RIPA buffer (50 mM Tris-HCl pH 7.5, 1% Igepal, 0.5% sodium deoxycholate, 150 mM NaCl, and 0.5% sodium dodecyl sulfate) containing protease inhibitors (Roche 4693132001) and phosphatase inhibitors (Roche 4906837001). Phosphorylation of ERK1/2 in compound-treated lysates was assayed using Phospho-ERK1/2 Whole Cell Lysate kits (Meso Scale Discovery K151DWD) according to the manufacturer's protocol. Assay plates were read on a Meso Scale Discovery Sector Imager 6000, and data were analyzed using a 4-parameter logistic model to calculate IC50 values.

[3] = target: His-tagged KRAS G12D protein (Homo sapiens (Human), UniProt P01116, G12D); assay: KRAS G12D TR-FRET Assay; type: binding
Method in brief: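 Each incubation ran at room temperature: enzyme with compound for 30 minutes, peptide for one hour, and detection reagents (0.4 nM europium anti-6×His, 5 nM streptavidin-d2) for one hour more. Protein and peptide stocks were each diluted to 20 nM before addition.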

[4] = read-out: KRAS G12D Coupled Exchange IC50
[5] = read-out: 2 h p-ERK (AsPC-1 cells), IC50
[6] = read-out: KRAS G12D Binding IC50

Sequence of His-tagged KRAS G12D protein (P01116 other isoform, or with tags, fused parts or gaps G12D): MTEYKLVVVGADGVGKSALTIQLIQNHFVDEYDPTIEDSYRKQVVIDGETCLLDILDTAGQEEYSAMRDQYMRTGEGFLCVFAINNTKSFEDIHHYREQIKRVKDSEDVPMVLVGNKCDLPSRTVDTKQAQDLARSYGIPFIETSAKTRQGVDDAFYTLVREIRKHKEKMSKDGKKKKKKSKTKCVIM
Sequence of GDP-bound KRAS protein (aa 1-169), containing both G12D and C118A amino acid substitutions (P01116 other isoform, or with tags, fused parts or gaps G12D/C118A): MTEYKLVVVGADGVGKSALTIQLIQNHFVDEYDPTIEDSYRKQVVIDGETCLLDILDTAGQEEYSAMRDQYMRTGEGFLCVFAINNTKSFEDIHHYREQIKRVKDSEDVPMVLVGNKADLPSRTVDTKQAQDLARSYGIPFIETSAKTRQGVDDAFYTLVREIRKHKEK

| IC50 [1, 4] | IC50 [2, 5] | IC50 [3, 6] | IC50 ([1]; 2 hours compound pre-incubation, read-out: KRAS G12D Coupled Exchange) | IC50 ([2]; read-out: 2 h p-ERK (AsPC-1 cells)) | IC50 ([3]; TR-FRET, read-out: KRAS G12D Binding) | SMILES |
| --- | --- | --- | --- | --- | --- | --- |
| 11 nM | 2320 nM | 20 nM |  |  |  | Cc1cc2[nH]ncc2c2c1CCCCC(=O)N1CC3(CCCN(C3)c3nc(OC[C@@]45CCCN4C[C@H](F)C5)nc4c(F)c-2ncc34)C1 [Example 56, 32-fluoro-24-(((2R,7aS)-2-fluorotetrahydro-1H-pyrrolo[1,2-a]pyrrol-7a(5H)-yl)methoxy)-10-methyl-3,13,14,19,23,25,27-heptaazaheptacyclo[25.3.1.1~1,3~.1~18,22~.0~9,17~.0~12,16~.0~21,26~]tritriaconta-9,11,14,16,18(32),19,21,23,25-nonaen-4-one] |
| 20 nM | 2070 nM | 29 nM |  |  |  | CN1C(=O)CCCCc2c(Cl)cc3[nH]ncc3c2-c2cc3nc(OC[C@@]45CCCN4C[C@H](F)C5)nc(c3nn2)N2CCC[C@@H]1C2 [Example 73, (17R)-9-Chloro-24-(((2R,7aS)-2-fluorotetrahydro-1H-pyrrolo[1,2-a]pyrrol-7a(5H)-yl)methoxy)-16-methyl-5,6,16,21,23,25,28,29-octaazahexacyclo[24.3.1.1˜17,21˜.0˜2,10˜.0˜3,7˜.0˜22,27˜]hentriaconta-1(30),2,4,7,9,22,24,26,28-nonaen-15-one] |
| 34 nM | 1660 nM | 46 nM |  |  |  | Cc1cc2[nH]ncc2c2c1CCCCC(=O)N[C@]1(C)COCCN(C1)c1nc(OC[C@@]34CCCN3C[C@H](F)C4)nc3c(F)c-2ncc13 (mixture of isomers) [Example 67] |
| 16 nM | 384 nM | 24 nM |  |  |  | Cc1cc2[nH]ncc2c2c1CCOC(=O)O[C@H]1C[C@]3(CCCN(C3)c3nc(OC[C@@]45CCCN4C[C@H](F)C5)nc4cc-2nnc34)C1 [Example 358, (1R,3S)-24-(((2R,7aS)-2-fluorotetrahydro-1H-pyrrolo[1,2-a]pyrrol-7a(5H)-yl)methoxy)-10-methyl-4,6-dioxa-13,14,19,20,23,25,27-heptaazaheptacyclo[25.3.1.1~1,3~.1~18,22~.0~9,17~.0~12,16~.0~21,26~]tritriaconta-9,11,14,16,18(32),19,21,23,25-nonaen-5-one] |
| 8 nM | 381 nM | 15 nM |  |  |  | Cc1cc2[nH]ncc2c2c1C[C@H](C)CCOC[C@@H]1CCCN(C1)c1nc(OC[C@@]34CCCN3C[C@H](F)C4)nc3c(F)c-2ncc13 [Example 251, (12S,17R)-30-fluoro-24-(((2R,7aS)-2-fluorotetrahydro-1H-pyrrolo[1,2-a]pyrrol-7a(5H)-yl)methoxy)-9,12-dimethyl-15-oxa-5,6,21,23,25,29-hexaazahexacyclo[24.3.1.1~17,21~.0~2,10~.0~3,7~.0~22,27~]hentriaconta-1(30),2,4,7,9,22,24,26,28-nonaene] |
| 26 nM | 4700 nM | 34 nM |  |  |  | Cc1cc2[nH]ncc2c2c1CCCCC(=O)N[C@@H]1COCCN(C1)c1nc(OC[C@@]34CCCN3C[C@H](F)C4)nc3c(F)c-2ncc13 [Example 66, (26S)-32-fluoro-4-(((2R,7aS)-2-fluorotetrahydro-1H-pyrrolo[1,2-a]pyrrol-7a(5H)-yl)methoxy)-18-methyl-28-oxa-1,3,5,9,14,15,25-heptaazahexacyclo [24.4.1.1~6,10~.0~2,7~.0~11,19~.0~12,16~]dotriaconta-2,4,6,8,10(32),11,13,16,18-nonaen-24-one] |
| 4 nM | 42.4 nM | 6 nM |  |  |  | Fc1c2ncc3c(nc(OC[C@@]45CCCN4C[C@H](F)C5)nc13)N1CCOC[C@]3(C1)C[C@@H](C3)OCCCCc1c(Cl)cc3[nH]ncc3c1-2 [Example 263, (1S,3S)-10-chloro-33-fluoro-24-(((2R,7aS)-2-fluorotetrahydro-1H-pyrrolo[1,2-a]pyrrol-7a(5H)-yl)methoxy)-4,30-dioxa-13,14,19,23,25,27-hexaazaheptacyclo[25.4.1.1~1,3~.1~18,22~.0~9,17~.0~12,16~.0~21,26~]tetratriaconta-9,11,14,16,18(33),19,21,23,25-nonaene] |
| 15 nM | 247 nM | 17 nM |  |  |  | Fc1c2ncc3c(nc(OC[C@@]45CCCN4C[C@H](F)C5)nc13)N1CCC[C@@H](COCCOCc3c(Cl)cc4[nH]ncc4c3-2)C1 [Example 142] |
| 70 nM | 1340 nM | 93 nM |  |  |  | Cc1cc2[nH]ncc2c2c1/C=C/COC(=O)O[C@@H]1CCCN(C1)c1nc(OC[C@@]34CCCN3C[C@H](F)C4)nc3c(F)c-2ncc13 [Example 101, (11E,17R)-30-fluoro-24-(((2R,7aS)-2-fluorotetrahydro-1H-pyrrolo[1,2-a]pyrrol-7a(5H)-yl)methoxy)-9-methyl-14,16-dioxa-5,6,21,23,25,29-hexaazahexacyclo[24.3.1.1~17,21~.0~2,10~.0~3,7~.0~22,27~]hentriaconta-1(30),2,4,7,9,11,22,24,26,28-decaen-15-one] |
| 6 nM | 36.1 nM | 11 nM |  |  |  | Cc1cc2[nH]ncc2c2c1CCOC(=O)OC1CC3(CCCN(C3)c3nc(OC[C@@H]4CCCN4C)nc4c(F)c-2ncc34)C1 [Example 205, (1R,3S)-32-fluoro-10-methyl-24-(((2S)-1-methyl-2-pyrrolidinyl)methoxy)-4,6-dioxa-13,14,19,23,25,27-hexaazaheptacyclo[25.3.1.1~1,3~.1~18,22~.0~9,17~.0~12,16~.0~21,26~]tritriaconta-9,11,14,16,18(32),19,21,23,25-nonaen-5-one] |
| 5 nM | 78.8 nM | 9 nM |  |  |  | O=C1OCCCc2c(Cl)cc3[nH]ncc3c2-c2ncc3c(nc(OC[C@@]45CCCN4C[C@H](F)C5)nc3c2F)N2C[C@H]3C[C@H]3[C@H](C2)O1 (racemic) [Example 179] |
| 9 nM | 77.5 nM | 10 nM |  |  |  | Fc1c2ncc3c(nc(OC[C@@]45CCCN4C[C@H](F)C5)nc13)N1CCCC(C1)c1cnc(o1)CCCc1c(Cl)cc3[nH]ncc3c1-2 (stereo partly drawn) [Example 255] |
|  |  |  | 8 nM | 75.4 nM | 13 nM | Fc1c2ncc3c(nc(OC[C@@]45CCCN4C[C@H](F)C5)nc13)N1CCC[C@H](C1)Cn1ncc(n1)[C@@H]1C[C@@H]1c1c(Cl)cc3[nH]ncc3c1-2 (mixture of isomers) [Example 383] |
| 54 nM | 1380 nM | 67 nM |  |  |  | Cc1cc2[nH]ncc2c2c1CCCOC(=O)OC1CC[C@@H]3CC[C@H]1N3c1nc(OC[C@@]34CCCN3C[C@H](F)C4)nc3c(F)c-2ncc13 (racemic) [Example 96] |
| 9 nM | 1260 nM | 44 nM |  |  |  | Cn1ncc2cc(Cl)c3c(c21)-c1ncc2c(nc(OC[C@@]45CCCN4C[C@H](F)C5)nc2c1F)N1CCOC[C@H](C1)OC(=O)OCCC3 [Example 335, (26S)-18-chloro-32-fluoro-4-(((2R,7aS)-2-fluorotetrahydro-1H-pyrrolo[1,2-a]pyrrol-7a(5H)-yl)methoxy)-13-methyl-23,25,28-trioxa-1,3,5,9,13,14-hexaazahexacyclo[24.4.1.1~6,10~.0~2,7~.0~11,19~.0~12,16~]dotriaconta-2,4,6,8,10(32),11,14,16,18-nonaen-24-one] |
| 12 nM | 270 nM | 17 nM |  |  |  | O=C1OC/C=C/c2c(Cl)cc3[nH]ncc3c2-c2ncc3c(nc(OC[C@@]45CCCN4C[C@H](F)C5)nc3c2F)N2CCC[C@H](C2)O1 (single isomer, unassigned) [Example 116] |

| SMILES | IC50 [1, 4] | IC50 [2, 5] | IC50 [3, 6] | IC50 ([1]; 2 hours compound pre-incubation, read-out: KRAS G12D Coupled Exchange) | IC50 ([2]; read-out: 2 h p-ERK (AsPC-1 cells)) | IC50 ([3]; TR-FRET, read-out: KRAS G12D Binding) |
| --- | --- | --- | --- | --- | --- | --- |
| Cc1cc2[nH]ncc2c2c1CCCCC(=O)N[C@@H]1CCCN(C1)c1nc(OC[C@@]34CCCN3C[C@H](F)C4)nc3c(F)c-2ncc13.O=C(O)C(F)(F)F [Example 48, (17R)-30-fluoro-24-(((2R,7aS)-2-fluorotetrahydro-1H-pyrrolo[1,2-a]pyrrol-7a(5H)-yl)methoxy)-9-methyl-5,6,16,21,23,25,29-heptaazahexacyclo[24.3.1.1˜17,21˜.0˜2,10˜.0˜3,7˜.0˜22,27˜]hentriaconta-1(30),2,4,7,9,22,24,26,28-nonaen-15-one 2,2,2-trifluoroacetate] | 13 nM | 931 nM | 14 nM |  |  |  |
| O=C1COCCCc2c(Cl)cc3[nH]ncc3c2-c2ncc3c(nc(OC[C@@]45CCCN4C[C@H](F)C5)nc3c2F)N2CCC[C@H](C2)O1 [Example 37, (18R)-9-Chloro-31-fluoro-25-(((2R,7aS)-2-fluorotetrahydro-1H-pyrrolo[1,2-a]pyrrol-7a(5H)-yl)methoxy)-14,17-dioxa-5,6,22,24,26,30-hexaazahexacyclo[25.3.1.1˜18,22˜.0˜2,10˜.0˜3,7˜.0˜23,28˜]dotriaconta-1(31),2,4,7,9,23,25,27,29-nonaen-16-one bis(2,2,2-trifluoroacetate)] | 4 nM | 58 nM | 5 nM |  |  |  |

Reference: patent publication US20240294551A1 (AMGEN INC., priority 2022, published 2024)
